Experimental data as given in ChEMBL document CHEMBL1144200, “Discovery and biological evaluation of benzo[a]carbazole-based small molecule agonists of the thrombopoietin (Tpo) receptor” (Bioorg Med Chem Lett, 2008).

Key:
[1] = biological target: T1, Thrombopoietin receptor (Homo sapiens) (UniProt P40238); experiment: Agonist activity at human thrombopoietin receptor in Ba/F3 cells assessed as activation of Stat5 response element-driven reporter gene expression relative to 30 ng/mL thrombopoietin; format: functional, cell-based; settings: BaF3
T1 sequence (whole entry): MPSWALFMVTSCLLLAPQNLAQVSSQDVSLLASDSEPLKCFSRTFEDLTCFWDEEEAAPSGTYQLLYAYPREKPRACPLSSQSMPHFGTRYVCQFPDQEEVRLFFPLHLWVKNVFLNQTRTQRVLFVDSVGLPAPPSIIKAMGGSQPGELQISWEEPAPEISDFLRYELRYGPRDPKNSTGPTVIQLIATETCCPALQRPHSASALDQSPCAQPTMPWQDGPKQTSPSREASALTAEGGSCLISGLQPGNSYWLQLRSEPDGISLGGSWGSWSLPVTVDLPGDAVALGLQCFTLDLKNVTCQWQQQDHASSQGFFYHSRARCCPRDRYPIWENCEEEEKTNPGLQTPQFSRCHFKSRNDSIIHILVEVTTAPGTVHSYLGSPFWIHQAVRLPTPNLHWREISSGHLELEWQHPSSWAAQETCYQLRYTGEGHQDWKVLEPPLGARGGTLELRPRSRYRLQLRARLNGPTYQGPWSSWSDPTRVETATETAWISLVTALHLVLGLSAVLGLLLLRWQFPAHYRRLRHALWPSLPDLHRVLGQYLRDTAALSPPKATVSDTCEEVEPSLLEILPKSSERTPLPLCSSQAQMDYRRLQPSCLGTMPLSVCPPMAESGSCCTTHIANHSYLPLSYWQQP

Thrombopoietin receptor = biological target: T2, Thrombopoietin receptor (Homo sapiens, UniProt P40238); experiment: Agonist activity at human thrombopoietin receptor in Ba/F3 cells assessed as activation of Stat5 response element-driven reporter gene expression; format: functional, cell-based, BaF3
T2 sequence (P40238 whole entry): T1 sequence (whole entry)

[2] = Half life in BALB/c mouse at 20 mg/kg, po; format: ADME, organism-based; design: dose 20 mg/kg, route oral; settings: in vivo
[3] = Cmax in BALB/c mouse at 20 mg/kg, po; format: ADME, organism-based; design: dose 20 mg/kg, route oral; settings: in vivo
[4] = Bioavailability in BALB/c mouse at 20 mg/kg, po; format: ADME, organism-based; settings: in vivo

Row | SMILES | Efficacy [1] [%] | EC50 (Thrombopoietin receptor) [µM] | half-life [2] [h] | Cmax [3] [nM] | bioavailability [4] [%]
1 | CN(C)c1ccc(-c2ccc3c4c([nH]c3c2)-c2cc(O)c(C(=O)O)cc2CC4)cc1 | 136 | 0.284 | – | – | –
2 | Cc1cc(-c2ccc3c4c([nH]c3c2)-c2cc(O)c(C(=O)O)cc2CC4)ccc1F | 126 | 0.035 | – | – | –
3 | O=C(O)c1cc2ccc3c4ccc(C(F)(F)F)cc4[nH]c3c2cc1O | 128 | 0.143 | – | – | –
4 | Cc1ccc2c(c1)[nH]c1c3cc(O)c(CC(=O)O)cc3ccc21 | 70 | 9.2 | – | – | –
5 | CCCCc1ccc(-c2ccc3c4c([nH]c3c2)-c2ccc(C(=O)N(C)C)cc2CC4)cc1 | 132 | 0.127 | – | – | –
6 | O=C(O)c1cc2c(cc1O)-c1[nH]c3c(F)ccc(C(F)(F)F)c3c1CC2 | 101 | 0.799 | – | – | –
7 | COC(=O)c1cc2ccc3c4ccccc4[nH]c3c2cc1O | 11 | 1.3 | – | – | –
8 | Cc1cccc(-c2ccc3c4c([nH]c3c2)-c2cc(O)c(C(=O)O)cc2CC4)c1 | 128 | 0.194 | – | – | –
9 | O=C(O)c1cc2c(cc1O)-c1[nH]c3cc(-c4cccc(C(F)(F)F)c4)ccc3c1CC2 | 127 | 0.148 | – | – | –
10 | CCCCc1ccc(-c2ccc3c4c([nH]c3c2)-c2ccc(-c3nnn[nH]3)cc2CC4)cc1 | 128 | 0.119 | – | – | –
11 | CCCCc1ccc(-c2ccc3c4c([nH]c3c2)-c2cc(O)c(C(=O)O)cc2CC4)cc1 | 143 | 0.026 | – | – | –
12 | CCCCc1ccc(-c2ccc3c4c([nH]c3c2)-c2ccc(C(=O)O)cc2CC4)cc1 | 141 | – | – | – | –
13 | CCCOc1cccc(-c2ccc3c4c([nH]c3c2)-c2cc(O)c(C(=O)O)cc2CC4)c1 | 147 | 0.043 | – | – | –
14 | CCCCc1ccc(-c2ccc3c4c([nH]c3c2)-c2ccc(C(N)=O)cc2CC4)cc1 | 111 | 0.076 | – | – | –
15 | Cc1cc(-c2ccc3c4c([nH]c3c2F)-c2ccc(C3=NCCN3)cc2CC4)ccc1F | – | > 30 | – | – | –
16 | O=C(O)c1cc2c(cc1O)-c1[nH]c3ccc(-c4ccccc4)cc3c1CC2 | 68 | 0.569 | – | – | –
17 | O=C(O)c1cc2c(cc1O)-c1[nH]c3cccc(-c4ccccc4)c3c1CC2 | – | > 30 | – | – | –
18 | O=C(O)c1cc2c(cc1O)-c1[nH]c3ccc(C(F)(F)F)cc3c1CC2 | 115 | 0.333 | – | – | –

Row | SMILES | Efficacy [1] [%] | EC50 (Thrombopoietin receptor) [µM] | half-life [2] [h] | Cmax [3] [nM] | bioavailability [4] [%]
19 | O=C(O)c1cc2ccc3c4ccccc4[nH]c3c2cc1O | 100 | 3.4 | – | – | –
20 | Cc1ccc2c(c1)[nH]c1c3cc(O)c(C(=O)O)cc3ccc21 | 76 | 0.87 | – | – | –
21 | O=C(O)c1cc2c(cc1O)-c1[nH]c3cc(C(F)(F)F)ccc3c1CC2 | 96 | 0.473 | – | – | –
22 | Cn1c2ccccc2c2ccc3cc(C(=O)O)c(O)cc3c21 | – | > 30 | – | – | –
23 | O=C(O)c1cc2c(cc1O)-c1[nH]c3c(C(F)(F)F)cccc3c1CC2 | 37 | 7.83 | – | – | –
24 | COCc1ccc(-c2ccc3c4c([nH]c3c2)-c2cc(O)c(C(=O)O)cc2CC4)cc1 | 132 | 0.452 | – | – | –
25 | Cc1cc(C)cc(-c2ccc3c4c([nH]c3c2)-c2cc(O)c(C(=O)O)cc2CC4)c1 | 128 | 0.067 | 4.1 | 2000 | 10
26 | Cc1ccc(-c2ccc3c4c([nH]c3c2)-c2cc(O)c(C(=O)O)cc2CC4)cc1C | 127 | 0.065 | – | – | –
27 | COc1cc2c(ccc3c4ccccc4[nH]c23)cc1C(=O)O | – | > 30 | – | – | –
28 | Cc1cccc(C)c1-c1ccc2c3c([nH]c2c1)-c1cc(O)c(C(=O)O)cc1CC3 | 30 | 0.232 | – | – | –
29 | Cc1ccc(-c2ccc3c4c([nH]c3c2)-c2cc(O)c(C(=O)O)cc2CC4)cc1 | 154 | 0.109 | – | – | –
30 | OCc1cc2ccc3c4ccccc4[nH]c3c2cc1O | – | > 30 | – | – | –
31 | O=C(O)c1cc2c(cc1O)-c1[nH]c3cc(C4CCCCC4)ccc3c1CC2 | – | > 30 | – | – | –
32 | N#Cc1ccc2[nH]c3c(c2c1)CCc1cc(C(=O)O)c(O)cc1-3 | – | > 30 | – | – | –
33 | O=C(O)c1ccc2c3c([nH]c2c1)-c1cc(O)c(C(=O)O)cc1CC3 | 74 | 7.79 | – | – | –
34 | CCCOc1ccc(-c2ccc3c4c([nH]c3c2)-c2cc(O)c(C(=O)O)cc2CC4)cc1 | 129 | 0.041 | – | – | –
35 | O=C(O)c1cc2c(cc1O)-c1[nH]c3cc(-c4ccccc4)ccc3c1CC2 | 136 | 0.373 | – | – | –
36 | CCCCc1ccc(-c2ccc3c4c([nH]c3c2F)-c2ccc(C(=O)O)cc2CC4)cc1 | 140 | 0.055 | – | – | –
